According to article PMC10223552 (Pharmaceuticals, 2023):
“And” between values parts separate entries of the source, which are not always exact repeats. Equal entries are not always repeated. “Also recorded” adds a separate entry of the source.

Assays:
[1] = system: MCF-7 breast cancer cells; experiment: cells; assay type: cell-based; details: for IC50: Homo sapiens, MCF7, 48 h, read-out: MTT IC50 MCF-7
Procedure: (§1) The cell lines were obtained from American Type Culture Collection (ATCC, Manassas, VA, USA) and were cultured at 37 °C in the presence of 5% CO2 in the atmosphere. […] The cell’s morphology was examined under a Nikon Eclipse Ti inverted phase contrast microscope (Nikon, Tokyo, Japan). The authenticity of tested cell lines was verified by short tandem repeat (STR) genotyping in the Department of Forensic Medicine (Medical University of Lublin, Lublin, Poland).
(§2) Cell viability based on metabolic activity was evaluated with the MTT colorimetric test based on the ability of viable cells to cause the transformation of tetrazolium salts MTT (3-[4,5-dimethylthiazol-2-yl]-2,5)diphenyltetrazolium bromide) into purple formazan, by cellular dehydrogenases. The cells were seeded into 96-well plates at a concentration of 2 × 10^5 cells/mL. […] Doxorubicin was used for comparison as the standard chemotherapeutic agent used in breast cancer treatment. After 48 h of incubation cell cultures were supplemented with 20 µL of 5 mg/mL MTT (Thermofisher, Waltham, MA, USA) stock in PBS (Corning, NY, USA), and the incubation was continued for 4 h at 37 °C. Next, the medium with MTT was removed, and obtained crystals were dissolved in 200 µL of DMSO (dimethyl sulfoxide, Avantor, Gliwice, Poland). The solution absorbency was measured at 570 nm, using a PowerWave™ xs microplate spectrophotometer (BioTek Instruments, Winooski, VT, USA). The experiment was performed three times with three replicates for each concentration of tested compounds.

[2] = system: MDA-MB-231 breast cancer cells; experiment: cells; assay type: cell-based; details: Homo sapiens, MDA-MB-231, 48 h, read-out: MTT IC50 MDA-MB-231
Procedure: as §1, §2

[3] = system: BJ normal skin fibroblast; experiment: MTT cytotoxicity test, BJ normal fibroblasts; assay type: cell-based; details: Homo sapiens, 48 h treatment
Procedure: The studies were conducted on two breast cancer cell lines—MCF-7 (ER+PR+/HER2-negative) and MDA-MB-231 (ER/PR/HER2-negative) and human normal fibroblast cell line BJ. The cell lines were obtained from American Type Culture Collection (ATCC, Manassas, VA, USA) and were cultured at 37 °C in the presence of 5% CO2 in the atmosphere. The culture media (Eagle’s Minimum Essential Medium for MCF-7 and BJ, Leibovitz’s L-15 Medium for MDA-MB-231, Corning, NY, USA), was supplemented with 10% fetal bovine serum. The cell’s morphology was examined under a Nikon Eclipse Ti inverted phase contrast microscope (Nikon, Tokyo, Japan). The authenticity of tested cell lines was verified by short tandem repeat (STR) genotyping in the Department of Forensic Medicine (Medical University of Lublin, Lublin, Poland).
Cell viability based on metabolic activity was evaluated with the MTT colorimetric test based on the ability of viable cells to cause the transformation of tetrazolium salts MTT (3-[4,5-dimethylthiazol-2-yl]-2,5)diphenyltetrazolium bromide) into purple formazan, by cellular dehydrogenases. The cells were seeded into 96-well plates at a concentration of 2 × 10^5 cells/mL. Once 70–80% confluency was reached, tested compounds were added: ADS10310 and ADS1017 in concentrations ranging from 1 to 250 µM or DMSO as the vehicle in control cultures for the next 48 h (max. DMSO concentration <0.5%). Doxorubicin was used for comparison as the standard chemotherapeutic agent used in breast cancer treatment. After 48 h of incubation cell cultures were supplemented with 20 µL of 5 mg/mL MTT (Thermofisher, Waltham, MA, USA) stock in PBS (Corning, NY, USA), and the incubation was continued for 4 h at 37 °C. […] The solution absorbency was measured at 570 nm, using a PowerWave™ xs microplate spectrophotometer (BioTek Instruments, Winooski, VT, USA). […] IC50 values were determined using the AAT Bioquest IC50 calculator (AAT Bioquest, Inc. Quest Graph™ EC50 Calculator. https://www.aatbio.com/tools/ec50-calculator) (accessed on 6 September 2022).

CYP2D6 = molecular target: T1, CYP2D6 (Homo sapiens, UniProt P10635); experiment: Influence on CYP2D6 activity (P450-Glo); assay type: in vitro ADME
T1 construct: purchased Promega (Madison, WI, USA)
T1 sequence (P10635 whole entry): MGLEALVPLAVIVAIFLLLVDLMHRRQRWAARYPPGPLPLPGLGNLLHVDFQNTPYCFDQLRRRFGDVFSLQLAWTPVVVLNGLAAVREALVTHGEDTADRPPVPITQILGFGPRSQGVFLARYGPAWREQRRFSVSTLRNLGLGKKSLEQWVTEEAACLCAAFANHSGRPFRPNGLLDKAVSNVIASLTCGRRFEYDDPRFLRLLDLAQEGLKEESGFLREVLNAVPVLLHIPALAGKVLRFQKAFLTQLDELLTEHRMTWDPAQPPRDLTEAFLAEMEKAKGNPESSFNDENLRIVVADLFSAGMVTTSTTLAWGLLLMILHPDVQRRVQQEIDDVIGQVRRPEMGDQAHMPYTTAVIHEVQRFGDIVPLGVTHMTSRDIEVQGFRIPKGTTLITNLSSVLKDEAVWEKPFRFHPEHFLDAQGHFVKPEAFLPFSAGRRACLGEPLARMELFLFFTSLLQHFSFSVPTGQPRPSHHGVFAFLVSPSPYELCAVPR
Procedure: (§3) Treatment of elderly patients who suffer from cancer or degenerative CNS diseases usually requires the use of more than one medication at the same time, which can result in a greater risk of DDIs. […] The results were compared to the selective CYP3A4 inhibitor ketoconazole and selective CYP2D6 inhibitor quinidine.
(§4) All assays and protocols used for the determination of compound ADME-Tox parameters were described previously. In brief, the metabolic stability assay was performed on HLMs, purchased from Sigma-Aldrich (St. Louis, MO, USA). ADS10310 was incubated with HLMs for 120 min in Tris buffer (pH = 7.4) at 37 °C. NADPH regeneration system Promega (Madison, WI, USA) was added to initiate whereas methanol was added to terminate the reaction. The LC/MS analyses of the centrifuged reaction mixture were obtained on Waters ACQUITY™ TQD system (Waters, Milford, CT, USA). The in silico prediction of most probable sites of ADS10310 metabolism was performed by MetaSite 6.0.1 software (Molecular Discovery Ltd., Hertfordshire, UK). […] The results were calculated from two independent experiments.
(§5) The luminescent signal and the absorbances (measured at 490 nm) in DDIs and safety assays were measured by using an EnSpire PerkinElmer microplate reader (Waltham, MA, USA). […]

hepatoma HepG2 cell line = experiment: Hepatotoxicity assay (MTS), HepG2; assay type: cell-based
Procedure: The cells were grown in Minimum Essential Media (MEM) supplemented with 10% fetal bovine serum (FBS) in a humidified atmosphere of 5% CO2 to reach 70–80% confluency. The cells were seeded next into 96-well plates at a concentration of 0.7 × 10^4 cells/well. […] The 1% DMSO in culture media was used as the vehicle control.

CYP3A4 = molecular target: T2, CYP3A4 (Homo sapiens, UniProt P08684); experiment: Influence on CYP3A4 activity (P450-Glo); assay type: in vitro ADME
T2 construct: purchased Promega (Madison, WI, USA)
T2 sequence (P08684 whole entry): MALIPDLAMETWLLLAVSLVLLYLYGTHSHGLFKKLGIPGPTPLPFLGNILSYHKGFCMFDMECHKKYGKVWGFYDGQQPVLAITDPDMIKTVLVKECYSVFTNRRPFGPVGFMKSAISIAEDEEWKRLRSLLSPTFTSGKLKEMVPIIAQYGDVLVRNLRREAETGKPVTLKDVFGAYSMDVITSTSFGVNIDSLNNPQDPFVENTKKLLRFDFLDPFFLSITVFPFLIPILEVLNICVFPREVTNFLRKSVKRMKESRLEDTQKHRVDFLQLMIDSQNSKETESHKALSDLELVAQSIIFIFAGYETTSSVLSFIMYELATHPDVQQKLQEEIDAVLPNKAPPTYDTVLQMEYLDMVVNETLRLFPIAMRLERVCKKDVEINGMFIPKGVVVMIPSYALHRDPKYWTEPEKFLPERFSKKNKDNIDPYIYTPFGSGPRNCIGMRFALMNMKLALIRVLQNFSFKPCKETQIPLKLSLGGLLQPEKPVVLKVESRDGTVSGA
Procedure: as §3, §4, §5

SMILES | IC50 [1] | IC50 [2] | IC50 [3] | CYP2D6 inhibition (in words) (CYP2D6) | decrease of CYP2D6 activity (CYP2D6; lowest tested dose of 0.1 µM) | decrease of hepatoma HepG2 cell viability (hepatoma HepG2 cell line; 100 µM, 72 h) | HepG2 cell viability at concentrations up to 50 µM (hepatoma HepG2 cell line; 72 h) | hepatotoxic activity (in words) (hepatoma HepG2 cell line; HepG2, 72 h, 0.01-100 µM) | Cell viability (%) ± SD, MCF-7 ([1]; MTT, 48 h, concentrations among 10-125 μM, column of each value cannot be told) | influence on CYP3A4 activity (CYP3A4)
N=C(N)N(CCCCN1CCN(CCCCCCCOc2ccccc2)CC1)Cc1ccccc1 [ADS1017] | 24.7 µM | 19.9 µM | 39 µM |  |  |  |  |  |  | 
Cl.Cl.N=C(NCCCCc1ccc(Cl)cc1)NCCCCN1CCCCC1 [ADS10310] | 82.9 µM | 115 µM | 231 µM | strongly inhibited CYP2D6; also recorded: strong inhibitor of CYP2D6 activity | more than 50% | ~ 40% | no decrease | weak hepatotoxic activity | 79.57±1.33% and 60.51±1.86% and 57.12±1.54% and 44.21±3.24% and 39.79±2.76% | did not show any influence on CYP3A4 activity
